Molecular target: T1, SERT (Homo sapiens, UniProt P31645)
T1 construct: expressed in transfected cells
Assay: whole-cell patch clamp of 5-HT-mediated currents in SERT-expressing HEK293 cells
Type: cell-based
Procedure: ten minutes (for [3H]MPP+), by exchange of the substrate-containing buffer with 0.2 mL ice-cold KHB.
The KHB was aspirated immediately. Cells were lysed and prepared for [3H] content analysis by adding 0.2 mL Ultima Gold™ XR liquid scintillation cocktail. Measurements were performed in a 1450 MicroBeta microplate liquid scintillation counter. Non-specific uptake was determined in the presence of 30 µM paroxetine (for YhSERT), 50 µM GBR12909 (for YhDAT and hNET), or 100 µM decynium-22 (for YhOCT3).
For radioligand binding assays, membranes were first prepared from HEK293 cells stably expressing YhSERT. Cells were harvested from dishes using a plastic scraper and ice-cold PBS. Cells were recovered as a pellet after centrifugation (400× g) for 10 min at 4°C, and then re-suspended in HME buffer. […] Protein concentration was determined using Coomassie Brilliant Blue kit (BioRad Laboratories, California, USA). […] The amount of radioactivity in the filters was measured using a Tri-Carb 2800TR liquid scintillation analyzer (PerkinElmer). The Ki was calculated from the measured IC50 using the Cheng-Prusoff equation.
Prior to imaging, cell culture medium was replaced with pre-warmed KHB. […] PyrAtes were excited using a 405 nm laser, and its fluorescent signals collected using 525/50 nm emission filters; mCherry was excited using a 561 nm laser, and fluorescence was collected using 595/50 nm emission filters. […]

T1 sequence (P31645 whole entry): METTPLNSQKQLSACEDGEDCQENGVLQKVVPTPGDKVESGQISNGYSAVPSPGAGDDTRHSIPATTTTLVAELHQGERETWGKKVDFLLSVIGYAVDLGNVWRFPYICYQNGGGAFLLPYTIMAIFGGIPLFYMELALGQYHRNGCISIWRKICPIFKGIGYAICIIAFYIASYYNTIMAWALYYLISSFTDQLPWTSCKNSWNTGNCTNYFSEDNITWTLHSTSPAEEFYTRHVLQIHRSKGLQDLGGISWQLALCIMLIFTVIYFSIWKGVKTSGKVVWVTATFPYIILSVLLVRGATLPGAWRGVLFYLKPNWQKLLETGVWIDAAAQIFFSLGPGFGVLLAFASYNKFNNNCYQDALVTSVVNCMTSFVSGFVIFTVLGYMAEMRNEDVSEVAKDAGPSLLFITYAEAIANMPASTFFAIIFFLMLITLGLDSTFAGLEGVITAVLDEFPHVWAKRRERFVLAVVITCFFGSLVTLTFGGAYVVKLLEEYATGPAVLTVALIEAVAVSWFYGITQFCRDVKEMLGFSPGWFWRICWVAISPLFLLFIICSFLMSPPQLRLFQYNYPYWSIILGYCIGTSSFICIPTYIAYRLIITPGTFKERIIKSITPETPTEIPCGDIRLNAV

ratio of 5-HT-mediated currents before and after application (current reduced to) (1 μM compound, 10 µM 5HT, N = 6): 47%
inhibition at 1 µM (HEK293, read-out: inhibition of 5-HT-mediated currents, 1 μM concentration): ~50%
SMILES: CCN(CC)c1ccc(-c2cc[n+]3c(-c4ccccc4)c(N4CCCC4)n(CCCCCCC(=O)NCc4ccc5c(c4)CO[C@@]5(CCCN(C)C)c4ccc(F)cc4)c3c2)cc1 [PYR-C6-CIT, PyrAte-C6-(S)-citalopram]

Reference: paper PMC11891579, “Fluorescent PyrAte-(S)-citalopram conjugates enable imaging of the serotonin transporter in living tissue” (Chemical Science, 2025)
